Patent publication US8791267B2, “Biaryl PDE4 inhibitors for treating inflammatory, cardiovascular and CNS disorders” (Decode Genetics EHF, priority 2007, dated 2014)
pIC50: −log10 of the molar value. Counter-ions that a name gives are not always drawn. Like-named read-outs stand apart in the source and are kept apart here.

Columns and labels:
PDE4 = PDE4 (Homo sapiens, UniProt Q08499); assay: In-vitro assay for PDE4 enzymes, real-time enzyme-coupled spectrophotometric assay (Table 9); type: biochemical
PDE4B = PDE4B (Homo sapiens, UniProt Q07343); assay: In-vitro assay for PDE4 enzymes, real-time enzyme-coupled spectrophotometric assay, PDE4B Activity (Table 10); type: biochemical
[1] = human PDE4D, activity class, Table 9, read-out: hPDE4D
[2] = human PDE4B (hPDE4B), enzyme-coupled spectrophotometric assay, read-out: PDE4B Activity, hPDE4B

Chain of PDE4 (Q08499 whole entry): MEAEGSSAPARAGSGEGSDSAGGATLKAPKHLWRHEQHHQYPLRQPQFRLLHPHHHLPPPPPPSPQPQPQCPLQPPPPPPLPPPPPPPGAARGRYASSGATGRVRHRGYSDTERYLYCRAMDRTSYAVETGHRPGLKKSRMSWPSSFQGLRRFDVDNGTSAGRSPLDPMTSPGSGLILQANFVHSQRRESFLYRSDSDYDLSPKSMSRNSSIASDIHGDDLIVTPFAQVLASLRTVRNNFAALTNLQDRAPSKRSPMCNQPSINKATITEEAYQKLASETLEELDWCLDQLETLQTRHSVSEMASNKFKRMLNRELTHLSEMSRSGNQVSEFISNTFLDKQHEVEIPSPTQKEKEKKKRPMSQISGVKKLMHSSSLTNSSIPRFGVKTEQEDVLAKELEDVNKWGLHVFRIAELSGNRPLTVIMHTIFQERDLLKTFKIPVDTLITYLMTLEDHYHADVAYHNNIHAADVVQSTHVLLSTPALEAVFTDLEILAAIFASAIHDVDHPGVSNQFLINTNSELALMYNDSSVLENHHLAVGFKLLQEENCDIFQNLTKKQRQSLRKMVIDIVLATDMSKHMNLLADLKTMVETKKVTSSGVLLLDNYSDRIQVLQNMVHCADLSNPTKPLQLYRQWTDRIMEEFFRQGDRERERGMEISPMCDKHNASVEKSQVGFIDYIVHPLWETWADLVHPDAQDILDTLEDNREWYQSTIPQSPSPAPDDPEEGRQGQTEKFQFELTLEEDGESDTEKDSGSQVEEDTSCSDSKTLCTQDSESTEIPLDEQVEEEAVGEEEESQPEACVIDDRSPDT
Chain of PDE4B (Q07343 whole entry): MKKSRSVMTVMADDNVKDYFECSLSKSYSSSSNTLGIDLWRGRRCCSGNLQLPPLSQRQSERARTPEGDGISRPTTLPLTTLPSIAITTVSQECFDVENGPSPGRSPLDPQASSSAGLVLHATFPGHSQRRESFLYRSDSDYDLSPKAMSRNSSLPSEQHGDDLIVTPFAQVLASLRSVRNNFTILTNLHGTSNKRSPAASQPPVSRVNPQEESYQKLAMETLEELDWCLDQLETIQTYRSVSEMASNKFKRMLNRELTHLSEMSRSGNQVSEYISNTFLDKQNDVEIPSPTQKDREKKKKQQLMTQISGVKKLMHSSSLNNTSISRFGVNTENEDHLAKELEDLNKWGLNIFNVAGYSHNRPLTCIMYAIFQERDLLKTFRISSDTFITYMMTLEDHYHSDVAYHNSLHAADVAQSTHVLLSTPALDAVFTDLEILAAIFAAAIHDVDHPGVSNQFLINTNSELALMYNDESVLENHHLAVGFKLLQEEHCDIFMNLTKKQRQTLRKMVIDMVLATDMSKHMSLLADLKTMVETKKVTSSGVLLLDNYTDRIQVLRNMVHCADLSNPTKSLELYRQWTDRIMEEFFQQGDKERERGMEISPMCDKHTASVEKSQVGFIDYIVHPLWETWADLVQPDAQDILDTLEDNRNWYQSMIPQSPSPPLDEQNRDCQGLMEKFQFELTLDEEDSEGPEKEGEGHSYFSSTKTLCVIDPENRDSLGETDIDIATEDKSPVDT

Row | SMILES | pIC50 (PDE4; [1]) | pIC50 (PDE4B; [2]) | pIC50 (PDE4) | pIC50 (PDE4B)
1 | COc1ccc(Oc2ccc(=O)[nH]n2)cc1-c1cccc([N+](=O)[O-])c1 [P-015, 6-(6-Methoxy-3′-nitro-biphenyl-3-yloxy)-2H-pyridazin-3-one] | > 5.30 | 4.40 to 4.68 |  | 
2 | COc1ccc(Cc2ccc(CNC(=O)Oc3ccccc3)nc2)cc1-c1cccc(Cl)c1 [P-592, [5-(3′-Chloro-6-methoxy-biphenyl-3-ylmethyl)-pyridin-2-ylmethyl]-carbamic acid phenyl ester] |  |  | > 5.30 | > 5.30
3 | COc1ccc(Cc2ccc(OCCN(C)C)nc2)c(O)c1-c1cccc([N+](=O)[O-])c1 [P-150] | 4.70 to 5.30 | 4.70 to 5.30 |  | 
4 | COc1ccc(Cc2ccc(NS(C)(=O)=O)cc2)cc1-c1cccc(Cl)c1 [P-246, N-[4-(3′-Chloro-6-methoxy-biphenyl-3-ylmethyl)-phenyl]-methanesulfonamide] | 4.70 to 5.30 | > 5.30 |  | 
5 | COc1ccc(Cc2ccc(CNC(C)=O)c(F)c2)c(F)c1-c1cccc(Cl)c1 [P-300] | > 5.30 | > 5.30 |  | 
6 | COc1ccc(CN2CCCC2=O)cc1-c1cccc(SC)c1 [P-245, 1-(6-methoxy-3′-methylsulfanyl-biphenyl-3-ylmethyl)-pyrrolidin-2-one] | 4.70 to 5.30 | > 5.30 |  | 
7 | COc1ccc(Cc2cccc(CO)c2)cc1-c1cccc([N+](=O)[O-])c1 [P-103, [3-(6-Methoxy-3′-nitro-biphenyl-3-ylmethyl)-phenyl]-methanol] | > 5.30 | > 5.30 |  | 
8 | COc1ccc(Cc2ccc(OC)c(-c3cccc([N+](=O)[O-])c3)c2O)cn1 [P-125] | > 5.30 | > 5.30 |  | 
9 | Nc1ccc(Cc2ccc(OC(F)F)c(-c3cccc(Br)c3)c2F)cc1 [P-317] | > 5.30 | > 5.30 |  | 
10 | CNc1ccc(Cc2ccc(OC)c(-c3cccc(Cl)c3)c2F)cc1 [P-311, [4-(3′-Chloro-2-fluoro-6-methoxy-biphenyl-3-ylmethyl)-phenyl]-methyl-amine] | > 5.30 | > 5.30 |  | 
11 | COc1ccc(Cc2ccc(C(N)=O)nc2)c(F)c1-c1cccc(Cl)c1 [P-401, 5-(3′-Chloro-2-fluoro-6-methoxy-biphenyl-3-ylmethyl)-pyridine-2-carboxylic acid amide] | > 5.30 | > 5.30 |  | 
12 | CCNC(=O)N1CCC[C@@H]1COc1ccc(Cc2ccc(OC)c(-c3cccc(Cl)c3)c2F)cn1 [P-533, (R)-2-[5-(3′-Chloro-2-fluoro-6-methoxy-biphenyl-3-ylmethyl)-pyridin-2-yloxymethyl]-pyrrolidine-1-carboxylic acid ethylamide] | > 5.30 | > 5.30 |  | 
13 | COc1ccc(Cc2ccc(Cl)nc2)c(F)c1-c1cccc(Cl)c1 [P-226] | > 5.30 | 4.70 to 5.30 |  | 
14 | COc1ccc(Cn2cncn2)nc1-c1cccc([N+](=O)[O-])c1 [P-024, 3-methoxy-2-(3-nitro-phenyl)-6-[1,2,4]triazol-1-ylmethyl-pyridine] | > 5.30 | 4.40 to 4.68 |  | 
15 | COc1ccc(C(=O)c2ccc(N)cc2)cc1-c1cccc(F)c1 [P-579] | > 5.30 | > 5.30 |  | 
16 | COc1ccc(Nc2ccc(NC(N)=O)cc2)cc1-c1cccc(C(C)=O)c1 [P-268, [4-(3′-acetyl-6-methoxy-biphenyl-3-ylamino)-phenyl]-urea] | > 5.30 | 4.70 to 5.30 |  | 
17 | CCNC(=O)Nc1ncc(Cc2ccc(OC)c(-c3cccc(Cl)c3)c2F)cn1 [P-619] | > 5.30 | > 5.30 |  | 
18 | COc1ccc(Cc2ccc(N3CCN(C(N)=O)CC3)nc2)c(F)c1-c1cccc(Cl)c1 [P-432] | > 5.30 | > 5.30 |  | 
19 | COc1ccc(Cc2ccc3nc(N)oc3c2)c(F)c1-c1cccc(Cl)c1 [P-285] | > 5.30 | 4.70 to 5.30 |  | 

Row | SMILES | pIC50 (PDE4; [1]) | pIC50 (PDE4B; [2]) | pIC50 (PDE4) | pIC50 (PDE4B)
20 | COc1cccc(-c2cc(Cn3cncn3)ccc2OC)c1 [P-086, 1-(6,3′-Dimethoxy-biphenyl-3-ylmethyl)-1H-[1,2,4]triazole] | > 5.30 | 4.70 to 5.30 |  | 
21 | COc1c(F)cc(Cc2ccc(NC(N)=O)cc2)cc1-c1cccc(Cl)c1 [P-550, [4-(3′-chloro-5-fluoro-6-methoxy-biphenyl-3-ylmethyl)-phenyl]-urea] | > 5.30 | > 5.30 |  | 
22 | COc1ccc(Cc2cccnc2Cl)c(O)c1-c1cccc(N)c1 [P-182] | 4.70 to 5.30 | 4.40 to 4.68 |  | 
23 | COc1ccc(Cc2ccc(NC(C)=O)cc2)c(O)c1-c1cccc([N+](=O)[O-])c1 [P-190, N-[4-(2-Hydroxy-6-methoxy-3′-nitro-biphenyl-3-ylmethyl)-phenyl]-acetamide] | > 5.30 | > 5.30 |  | 
24 | COc1ccc(Cn2cc(C#N)ccc2=O)cc1-c1cccc([N+](=O)[O-])c1 [P-195, 1-(6-Methoxy-3′-nitro-biphenyl-3-ylmethyl)-6-oxo-1,6-dihydro-pyridine-3-carbonitrile] | 4.70 to 5.30 | 4.40 to 4.68 |  | 
25 | COc1ccc(Cc2ccc(F)cc2)c(O)c1-c1cccc([N+](=O)[O-])c1 [P-099, 3-(4-Fluoro-benzyl)-6-methoxy-3′-nitro-biphenyl-2-ol] | > 5.30 | > 5.30 |  | 
26 | COc1ccc(Oc2ccc(NS(C)(=O)=O)cc2)c(F)c1-c1cccc(Cl)c1 [P-254, N-[4-(3′-Chloro-2-fluoro-6-methoxy-biphenyl-3-yloxy)-phenyl]-methanesulfonamide] | 4.70 to 5.30 | > 5.30 |  | 
27 | CCNC(=O)Nc1ccc(Cc2ccc(OC)c(-c3cccc(Cl)c3)c2F)cc1 [P-250] | > 5.30 | > 5.30 |  | 
28 | COc1ccc(Cc2ccc3c(c2)OCO3)nc1-c1cccc([N+](=O)[O-])c1 [P-021, 6-benzo[1,3]dioxol-5-ylmethyl-3-methoxy-2-(3-nitro-phenyl)-pyridine] | > 5.30 | 4.70 to 5.30 |  | 
29 | CCNC(=O)Nc1ccc(Oc2ccc(OC)c(-c3cccc(C#N)c3)c2F)cn1 [P-440, 1-[5-(3′-Cyano-2-fluoro-6-methoxy-biphenyl-3-yloxy)-pyridin-2-yl]-3-ethyl-urea] | > 5.30 | 4.70 to 5.30 |  | 
30 | COc1ccc(Cc2ccncc2)c(O)c1-c1cccc([N+](=O)[O-])c1 [P-017, 6-methoxy-3′-nitro-3-pyridin-4-ylmethyl-biphenyl-2-ol] | > 5.30 | > 5.30 |  | 
31 | COc1ccc(Cn2cncn2)cc1-c1cccc(OC(F)(F)F)c1 [P-084, 1-(6-Methoxy-3′-trifluoromethoxy-biphenyl-3-ylmethyl)-1H-[1,2,4]triazole] | > 5.30 | 4.70 to 5.30 |  | 
32 | COc1ccc(Cc2ccc(CN)nc2)cc1-c1cccc(Cl)c1 [P-591, C-[5-(3′-chloro-6-methoxy-biphenyl-3-ylmethyl)-pyridin-2-yl]-methylamine hydrochloride] | > 5.30 | > 5.30 |  | 
33 | COc1ccc(CN2C(=O)CC[C@H]2CO)cc1-c1cccc([N+](=O)[O-])c1 [P-131, (S)-5-Hydroxymethyl-1-(6-methoxy-3′-nitro-biphenyl-3-ylmethyl)-pyrrolidin-2-one] | 4.70 to 5.30 | 4.70 to 5.30 |  | 
34 | COc1ccc(Cn2ccnc2)cc1-c1ccc2c(c1)OCO2 [P-037, 1-(3-Benzo[1,3]dioxol-5-yl-4-methoxy-benzyl)-1H-imidazole] | > 5.30 | > 5.30 |  | 
35 | CCNC(=O)Nc1ccc(Cc2ccc(OC)c(-c3cccc(Cl)c3)c2F)cn1 [P-356] | > 5.30 | > 5.30 |  | 
36 | COc1ccc(Cc2ccc[nH]c2=O)c(O)c1-c1cccc(N)c1 [P-185] | 4.70 to 5.30 | 4.40 to 4.68 |  | 
37 | COc1ccc(CN2CCOC2=O)cc1-c1cccc([N+](=O)[O-])c1 [P-076, 3-(6-Methoxy-3′-nitro-biphenyl-3-ylmethyl)-oxazolidin-2-one] | > 5.30 | > 5.30 |  | 
38 | COc1ccc(Cc2cccnc2)c(O)c1-c1cccc([N+](=O)[O-])c1 [P-106] | > 5.30 | > 5.30 |  | 
